Data set [1] is described as follows: Solubility of the compound in phosphate buffered saline. The data set is classed as physicochemical.
The nature of data set [2]: Half life in mouse liver microsomes. The data set is classed as ADME, Microsome. (Microsomes from liver hold many membrane-bound enzymes, among them those of drug oxidation.)
Data set [3] can be described thus: Half life in human liver microsomes. Type of data set: ADME.
The nature of data set [4]: Inhibition of calcineurin in human Jurkat cells assessed as inhibition of NFAT-mediated IL-2 production after 8 hrs by beta-lactamase reporter gene assay. The data set is classed as cell-based. In general terms: Reporter assays use an easily measured gene product as a stand-in for the process of interest.
The mark [5] stands for this setting: phosphate buffered saline, read-out: solubility.

In ChEMBL document CHEMBL3132793, “Novel FK506 and FK520 analogues via mutasynthesis: mutasynthon scope and product characteristics” (Medchemcomm, 2013) one finds solubility, half-life and IC50 data, which are given here for nine compounds.

In brackets after ≈: the same amount, converted by molar mass.

Consider `C=CC[C@@H]1/C=C(\C)C[C@H](C)C[C@H](OC)[C@H]2O[C@@](O)(C(=O)C(=O)N3CCCC[C@H]3C(=O)O[C@H](/C(C)=C/[C@H]3CC[C@H](O)CC3)[C@H](C)[C@@H](O)CC1=O)[C@H](C)C[C@@H]2OC`, for which the solubility in data set [1] (setting [5]) came out at 1.3 µM (≈ 1.01 µg/mL). For the same compound, the values for the half-life in data set [2] and in data set [3] were 9 min and 2.6 min, respectively. In addition, the half-maximal inhibitory concentration (IC50) in data set [4] was 0.145 nM.
As for `CC[C@@H]1/C=C(\C)C[C@H](C)C[C@H](OC)[C@H]2O[C@@](O)(C(=O)C(=O)N3CCCC[C@H]3C(=O)O[C@H](/C(C)=C/[C@H]3CC[C@H](O)CC3)[C@H](C)[C@@H](O)CC1=O)[C@H](C)C[C@@H]2OC`, the IC50 in data set [4] is 0.249 nM.
Turning to `C=CC[C@@H]1/C=C(\C)C[C@H](C)C[C@H](OC)[C@H]2O[C@@](O)(C(=O)C(=O)N3CCCC[C@H]3C(=O)O[C@H](/C(C)=C/[C@H]3CC=CCC3)[C@H](C)[C@@H](O)CC1=O)[C@H](C)C[C@@H]2OC`, the solubility in data set [1] (setting [5]) was 0.7 µM (≈ 0.529 µg/mL). The half-life in data set [2] amounted to 3 min; in data set [3] it was 5.7 min. In data set [4], the IC50 came out at 0.433 nM.
With `CC[C@@H]1/C=C(\C)C[C@H](C)C[C@H](OC)[C@H]2O[C@@](O)(C(=O)C(=O)N3CCCC[C@H]3C(=O)O[C@H](/C(C)=C/[C@@H]3CC[C@@H](O)[C@@H](F)C3)[C@H](C)[C@@H](O)CC1=O)[C@H](C)C[C@@H]2OC`, in data set [1] (setting [5]), the solubility was determined as 35.6 µM (≈ 27.8 µg/mL). Further, the half-life in data set [2] turned out to be 11.3 min; in data set [3], 3.2 min. The IC50 in data set [4] is 0.082 nM.
For the compound `CC[C@@H]1/C=C(\C)C[C@H](C)C[C@H](OC)[C@H]2O[C@@](O)(C(=O)C(=O)N3CCCC[C@H]3C(=O)O[C@H](/C(C)=C/[C@H]3CCCC(O)CC3)[C@H](C)[C@@H](O)CC1=O)[C@H](C)C[C@@H]2OC` (stereo not given in full), in data set [1] (setting [5]), the solubility was found to be 86.5 µM (≈ 67.1 µg/mL). Moreover, the half-life was determined as 3.8 min in data set [2] and 3.1 min in data set [3]. In addition, the IC50 in data set [4] is 0.072 nM.
Turning to `CC[C@@H]1/C=C(\C)C[C@H](C)C[C@H](OC)[C@H]2O[C@@](O)(C(=O)C(=O)N3CCCC[C@H]3C(=O)O[C@H](/C(C)=C/C3CCOCC3)[C@H](C)[C@@H](O)CC1=O)[C@H](C)C[C@@H]2OC`, the solubility in data set [1] (setting [5]) amounted to 13.4 µM (≈ 10 µg/mL). Also, the half-life in data set [2] stood at 7.6 min; in data set [3], 1.8 min. In addition, the IC50 in data set [4] was 0.461 nM.
For `CO[C@H]1C[C@@H](C)C/C(C)=C/[C@@H](C)C(=O)C[C@H](O)[C@@H](C)[C@@H](/C(C)=C/[C@@H]2CC[C@@H](O)[C@@H](F)C2)OC(=O)[C@@H]2CCCCN2C(=O)C(=O)[C@]2(O)O[C@H]1[C@@H](OC)C[C@H]2C`, the IC50 in data set [4] came out at 0.283 nM.
`CC[C@@H]1/C=C(\C)C[C@H](C)C[C@H](OC)[C@H]2O[C@@](O)(C(=O)C(=O)N3CCCC[C@H]3C(=O)O[C@H](/C(C)=C/[C@@H]3CC[C@@H](O)[C@H](OC)C3)[C@H](C)[C@@H](O)CC1=O)[C@H](C)C[C@@H]2OC` [ASCOMYCIN]: the solubility in data set [1] (buffer) was 40.2 µM (≈ 31.8 µg/mL). Further, the half-life in data set [2] turned out to be 17.4 min; in data set [3] it was 2.4 min. Also, the IC50 in data set [4] turned out to be 0.205 nM.
`C=CC[C@@H]1/C=C(\C)C[C@H](C)C[C@H](OC)[C@H]2O[C@@](O)(C(=O)C(=O)N3CCCC[C@H]3C(=O)O[C@H](/C(C)=C/[C@@H]3CC[C@@H](O)[C@H](OC)C3)[C@H](C)[C@@H](O)CC1=O)[C@H](C)C[C@@H]2OC` [TACROLIMUS ANHYDROUS]: the solubility in data set [1] (setting [5]) amounted to 42.4 µM (≈ 34.1 µg/mL). The half-life in data set [2] worked out at 22.1 min; in data set [3] it was 2.4 min. Further, in data set [4], the IC50 is 0.056 nM.

For orientation: solubility means the dissolved amount per volume that the medium holds. What is called half-life is the time needed for the level to fall by half in the phase considered. Broadly, the IC50 is the midpoint of a concentration-inhibition curve.
